Assay results taken from EP0127426A1, “Percutaneous pharmaceutical compositions for external use” (Takeda Chemical Industries, Ltd., priority 1983, dated 1984).
Where two headings read alike, the source gives them in different places. Blank lines part the entries; values can stand above or below the molecule they belong to.

Columns and labels:
[1] = rat, in vivo
Method: (§1) SD-JCL male rats with an average body weight of 250 g were used as test animals. Under pentobarbital anesthesia, the abdomen of each animal was clipped off hairs (20 cm^2: 5 x 4 cm) with an electric clipper and the sample was applied to the denuded area. Using 5 rats, 0.12 ml of venous blood was taken from the tail vein 1, 2, 4 and 6 hours after application of the sample. Each blood specimen was centrifuged and 0.05 ml of the plasma was put in a polyethylene minivial containing 5 ml of a toluenic scintillator and stirred. After standing, the total radioactivity of the plasma sample was measured with a β-ray scintillation spectrometer and the TRH equivalent concentration of the plasma (µg.eq./ml) was calculated.
(§2) The percutaneous absorption of TRH tartrate was evaluated in AUC6 (the area under the blood concentration-time curve during 0 to 6 hours).

[2] = Percutaneous absorption test in rats, TRH equivalent plasma concentration from total radioactivity (3H-labeled TRH)
[3] = rat, in vivo; remark: listed apart in the source
Method: 3 mg of clonidine, an antihypertensive drug, was dissolved in a mixture of 20 mg of lauric acid, one of the percutaneous absorption promoting agents according to this invention, and 177 mg of propylene glycol to prepare a coating sample.
A percutaneous absorption test was carried out in male SD-JCL rats with an average body weight of 250 g. Under pentobarbital anesthesia, the abdomen of each rat was clipped of hairs with an electric clipper and the sample was coated on the denuded abdominal area (5 x 4 cm).
The collected venous blood was centrifuged and 0.2 ml of the plasma was extracted with 1 ml of 0.01 N-NaOH and 5 ml of chloroform. From a 4 ml portion of the chloroform layer, the chloroform was distilled off and the residue was dissolved by addition of 0.2ml of 0.05 M sodium acetate-acetonitrile-tetrahydrofuran (70:30:0.2, v/v). A 50 µl portion of the solution was applied to a liquid chromatograph to determine the concentration of clonidine. The µ-Bondapak Cl8 column was used for this liquid chromatography. The percutaneous absorption of clonidine was evaluated in terms of AUC6 (area under the blood concentration-time curve of clonidine during 0 to 6 hours) and its multiple over the [formula] of the preparation of Comparative Example 1 was calculated.

[4] = Percutaneous absorption test in rats, TRH equivalent plasma concentration from total radioactivity (3H-labeled TRH); assay type: in vivo, SD-JCL male rats; details: additive in propylene glycol preparation of TRH tartrate (Comparative Example 2)
Method: as §1, §2

[5] = in vivo; details: male, SD-JCL, rat, topical or ocular

Molecule: NC(=O)C1CCCN1C(=O)C(Cc1c[nH]cn1)NC(=O)C1CCC(=O)O1 [DN-1417, y-butyrolactone-y-carbonyl-L-histidyl-L-prolinamide]
AUC6 (the area under the blood concentration-time curve during 0 to 6 hours) [1]: 0.3 ug.eq.hr/ml

Molecule: L-pyroglutamyl-L-histidyl-L-prolinamide [TRH tartrate]
AUC6 (the area under the blood concentration-time curve during 0 to 6 hours) ([2]; Comparative Example 1 (TRH tartrate in propylene glycol, no absorption promoter), restated in Example 5): 0.16 ug.eq.hr/ml
AUC6 (the area under the blood concentration-time curve during 0 to 6 hours) ([2]; Comparative Example 6: 0.8 mg TRH tartrate in 179.2 mg propylene glycol + 20 mg caprylyl alcohol (C8)): 0.19 pg.eq/ml
multiple of the AUC6 value over the control preparation of Comparative Example 1 ([2]; Example 1 preparation (20 mg oleic acid) vs Comparative Example 1 (no absorption promoter)): approximately 8 times
multiple of the AUC6 value over the control preparation of Comparative Example 1 ([2]; Example 3 (20 mg lauric acid, ethanol wiping) vs Comparative Example 1): 14 times
AUC6 (the area under the blood concentration-time curve during 0 to 6 hours) ([2]; Example 3: 0.8 mg TRH tartrate in 179.2 mg propylene glycol + 20 mg lauric acid, site wiped 5 times with ethanol-sanitary cotton before application): 2.22 µg.eq.hr/ml
multiple of the AUC6 value over the control preparation of Comparative Example 1 ([2]; Example 4 (20 mg lauric acid, horny layer stripped) vs Comparative Example 1): 38 times
AUC6 (the area under the blood concentration-time curve during 0 to 6 hours) ([2]; Example 4: 0.8 mg TRH tartrate in 179.2 mg propylene glycol + 20 mg lauric acid, horny layer stripped 3 times with cellophane tape before application): 6.06 ug.eq.hr/ml

Molecule: CCNC(=O)[C@@H]1CCCN1C(=O)[C@H](CCCNC(=N)N)NC(=O)[C@H](CC(C)C)NC(=O)[C@@H](CC(C)C)NC(=O)[C@H](Cc1ccc(O)cc1)NC(=O)[C@H](CO)NC(=O)[C@H](Cc1c[nH]c2ccccc12)NC(=O)[C@H](Cc1c[nH]cn1)NC(=O)[C@@H]1CCC(=O)N1 [TAP-144]
AUC(0-t) [5]: 0.5 ng·h/mL

Molecule: L-pyroglutamyl-L-histidyl-L-prolinamide [TRH]
multiple of the AUC6 value over Comparative Example 1 ([2]; Example 5 (TRH, 30 mg oleic acid) vs Comparative Example 1): 8.7 times
AUC6 (the area under the blood concentration-time curve during 0 to 6 hours) ([2]; Example 5: 0.5 mg TRH in 169.5 mg propylene glycol + 30 mg oleic acid): 1.4 µg.eq.hr/ml

The remaining lines, values ahead:

effectiveness of the percutaneous absorption promoting agent for clonidine [3]: ineffective
Molecule: CCCCCCCCCCCC(=O)O [lauric acid]

absorption promoting effect of the additive [4]: no absorption promoting effect
Molecule: CCCCCCCCCCCCCC(=O)OC(C)C [isopropyl myristate]

effectiveness of the percutaneous absorption promoting agent for clonidine [3]: ineffective
Molecule: CCCCCCCC/C=C\CCCCCCCC(=O)O [oleic acid]

effectiveness of the percutaneous absorption promoting agent for clonidine [3]: ineffective
Molecule: CCCCCCCC/C=C\CCCCCCCC(N)=O [oleamide]

effectiveness of the percutaneous absorption promoting agent for clonidine [3]: ineffective
Molecule: CCCCCCCCCCCCN [laurylamine]
